What was measured:
[1] = human daily intake, declared by some companies, no experimental data; cited from earlier work
[2] = 200 g rats, gavage each day, 14 days; maximum dose group in which no rat has diarrhea on day 14
From the text: at step 2, continuing the step 1 for 14 days;
At step 1, 200 g rats are selected as experimental animal objects, and the 200 g rats are divided into six experimental groups and one control group, with each group including ten numbered rats; and the rats in the six experimental groups (namely, dose (1) experimental group, dose (2) experimental group, dose (3) experimental group, dose (4) experimental group, dose (5) experimental group and dose (6) experimental group) are gavaged with different doses of xylitol each day. The ten rats in each group are gavaged with the same dose.
At step 2, the step 1 is continued for 14 days.
Specifically, 50 g of xylitol was set as the reference value, and estimated values of the experimental range of the human body to xylitol were set to 20 g/d, 30 g/d, 40 g/d, 50 g/d, 60 g/d and 70 g/d (six groups in total) according to the reference value. According to the conversion formula of drug doses of experimental animal and human body, the daily experimental dose of xylitol of 200 g rats was respectively obtained as 0.36 g/d, 0.54 g/d, 0.71 g/d, 0.89 g/d, 1.07 g/d and 1.25 g/d (six groups in total), and then experiments were performed respectively.
Similarly, estimated values of the human body to L-arabinose were respectively set to 70 g/d, 80 g/d, 90 g/d, 100 g/d, 110 g/d and 120 g/d (six groups in total) as the experimental range. According to the conversion formula of drug doses of experimental animal and human body, the daily experimental dose of L-arabinose of 200 g rats was respectively obtained as 1.25 g/d, 1.43 g/d, 1.61 g/d, 1.79 g/d, 1.96 g/d and 2.14 g/d (six groups in total), and then experiments were performed respectively.
Similarly, estimated values of the human body to sorbitol were respectively set to 5 g/d, 10 g/d, 15 g/d, 20 g/d, 25 g/d and 30 g/d (six groups in total) as the experimental range. […]

[3] = tolerated dose of a 70 kg human body converted from the rat maximum tolerated dose (K = 56.0); conditions: rat dose N x conversion factor 56.0
From the text: wherein K is a conversion factor between a 70 kg human body and a 200 g rat, which is 56.0; the maximum tolerated dose N of the rat to xylitol and the tolerated dose R of the human body to the xylitol are both in the unit of g/d; or,
wherein K is a conversion factor between a 70 kg human body and a 200 g rat, which is 56.0. The maximum tolerated dose N of the rat to xylitol and the tolerated dose R of the human body to the xylitol are both in the unit of g/d; or,
In the specific implementation, the maximum tolerated dose of the human body to a certain sugar alcohol or functional sugar recorded in the existing data is used as a reference value firstly. Taking xylitol as an example, the existing companies have declared that the daily intake of xylitol should not exceed 50 g. 50 g of xylitol is set as the reference value, and fluctuation is performed based on the reference value to obtain an estimated value of the experimental range. […] The experiment is continued for 14 days. Considering the experimental results and verification results comprehensively, the maximum tolerated dose N of 200 g rats to xylitol is obtained.

SMILES | daily intake should not exceed [1] | maximum tolerated dose N of 200 g rat [2] | maximum tolerated dose R of the human body [3]
O=C[C@H](O)[C@@H](O)[C@@H](O)CO [L-arabinose] | ≤ 120 g | 1.61 g/day | 90 g/day
OC[C@@H](O)[C@@H](O)[C@H](O)[C@@H](O)CO [sorbitol] |  | 0.36 g/day | 20 g/day
OC[C@@H](O)[C@H](O)[C@@H](O)CO [xylitol] |  | 0.71 g/day | 40 g/day

— patent US20210379204A1, “METHOD FOR CALCULATING TOLERANCE DOSE OF HUMAN BODY TO SUGAR ALCOHOL AND FUNCTIONAL SUGAR” (Zhejiang Huakang Pharmaceutical Co., Ltd., priority 2018, published 2021)
